According to US20210378993A1 (Nacuity Pharmaceuticals, Inc., priority 2020, published 2021):
Several values for one entry are separate records, joined by “and”; a condition that tells them apart may be missing. Identical values can stand only once.

Tests used:
[1] = target: T1, glutamate cysteine ligase (GCL, EC 6.3.2.2) (Homo sapiens, UniProt P48506); details: cited from earlier work
T1 sequence (P48506 1-637): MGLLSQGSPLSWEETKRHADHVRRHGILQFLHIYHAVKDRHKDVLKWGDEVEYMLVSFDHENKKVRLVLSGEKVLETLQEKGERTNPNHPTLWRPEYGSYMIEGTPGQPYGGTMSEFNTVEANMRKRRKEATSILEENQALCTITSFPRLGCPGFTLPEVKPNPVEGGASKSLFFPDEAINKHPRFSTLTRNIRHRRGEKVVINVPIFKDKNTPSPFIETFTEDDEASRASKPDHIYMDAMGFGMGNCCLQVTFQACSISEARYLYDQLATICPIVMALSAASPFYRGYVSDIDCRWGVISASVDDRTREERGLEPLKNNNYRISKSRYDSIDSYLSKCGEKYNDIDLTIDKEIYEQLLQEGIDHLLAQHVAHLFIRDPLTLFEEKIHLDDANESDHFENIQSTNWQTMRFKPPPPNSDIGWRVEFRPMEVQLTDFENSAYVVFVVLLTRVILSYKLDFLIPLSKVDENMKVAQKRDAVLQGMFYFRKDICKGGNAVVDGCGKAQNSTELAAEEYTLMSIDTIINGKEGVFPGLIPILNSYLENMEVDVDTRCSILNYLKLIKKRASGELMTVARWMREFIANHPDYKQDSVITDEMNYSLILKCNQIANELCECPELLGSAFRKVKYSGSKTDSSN
T1 sequence (P48507 1-274 partner): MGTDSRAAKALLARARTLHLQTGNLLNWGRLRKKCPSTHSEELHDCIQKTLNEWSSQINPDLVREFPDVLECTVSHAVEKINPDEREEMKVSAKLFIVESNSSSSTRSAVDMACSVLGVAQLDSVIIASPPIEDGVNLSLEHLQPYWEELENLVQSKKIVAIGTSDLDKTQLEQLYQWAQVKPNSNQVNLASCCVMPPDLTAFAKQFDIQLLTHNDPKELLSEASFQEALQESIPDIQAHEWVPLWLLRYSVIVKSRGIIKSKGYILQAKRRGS

[2] = test system: human cystinotic fibroblasts (GM00008); assay: Cytotoxicity (MTT cell viability) in cystinotic fibroblast cell culture; type: cell-based; details: 25, 50 or 75 μM, 48 and 72 hours (FIGS. 1 and 2), MTT
Procedure: Appropriate concentrations of the NACA and diNACA were selected and incubated along with human cystinotic fibroblasts in media. […] Media was then removed, and cells were incubated in 0.5mg/ml MTT (3-(4,5-dimethylthiazol-2-yl)-2,5-diphenyltetrazolium bromide) reconstituted in media. A colorimetric assay used reduction of the yellow tetrazolium salt (MTT) to a purple formazan salt in order to measure cellular metabolic activity as a proxy for cell viability. Treated cells were incubated in MTT for 4 hours at 37° C., after which time intracellular purple formazan salt crystals were visible under a microscope. MTT solution was then removed, and DMSO was added to each well in order to lyse cells and dissolve the salt crystals. After 1 hour incubation at 37° C., absorbance was measured on a multiwell plate reader (Biotek FL6000) at 570 nm, and percentage cell viability calculated.

[3] = eyedrops, stored at −20° C. until dispensed, kept refrigerated once opened; cited from earlier work
[4] = test system: rabbit eyes; assay: Ophthalmic tolerability, daily Draize scores after topical ocular administration; type: in vivo; details: rabbits
Procedure: To simulate topical ocular exposure to an ophthalmic insert containing AGENT, prototype ophthalmic formulations were prepared containing either 1% NPI-001, 1% diNACA, 1% NAC or vehicle and tested to evaluate ocular tolerability. Three rabbits per group were administered 1% NPI-001, 1% di-NAC, 1% NAC in a prototype vehicle, via bilateral topical administration four times a day for 6 days, and once on Day 7.

[5] = humans, oral dose of 600 mg; cited from earlier work
[6] = 1% in prototype vehicle, bilateral topical four times a day, Day 1, per animal and eye
[7] = 1% in prototype vehicle, bilateral topical four times a day, Day 2, per animal and eye
[8] = 1% in prototype vehicle, bilateral topical four times a day, Day 3, per animal and eye
[9] = 1% in prototype vehicle, bilateral topical four times a day, Day 4, per animal and eye
[10] = 1% in prototype vehicle, bilateral topical four times a day, Day 5, per animal and eye
[11] = 1% in prototype vehicle, bilateral topical four times a day, Day 6, per animal and eye
[12] = 1% in prototype vehicle, bilateral topical, once on Day 7, Day 7, per animal and eye
[13] = 1% in prototype vehicle, bilateral topical, (baseline), per animal and eye

Compound: N[C@@H](CCC(=O)N[C@@H](CS)C(=O)NCC(=O)O)C(=O)O [GSH, c-L-glutamyl-L-cysteinyl-glycine]
- Ki ([1]; read-out: Ki, nonallosteric competitive inhibition of GCL): 2300 µM

Compound: NCCS [cysteamine, reference compound]
- cell viability (cytotoxicity) versus no treatment [2]: increased cell viability
- shelf life [3]: 1 week

Compound: N[C@@H](CS)C(=O)O [cysteine, L-cysteine]
- Km [1]: 100 to 300 µM

Compound: CC(=O)NC(CS)C(=O)O (stereo not drawn) [NAC, N-acetylcysteine, reference compound]
- Daily Draize Scores for Chemosis, Day 1 [4, 6]: 0
- Daily Draize Scores for Discharge, Day 1 [4, 6]: 0
- Daily Draize Scores for Hyperemia, Day 1 [4, 6]: 0
- Daily Draize Scores for Chemosis, Day 2 [4, 7]: 0
- Daily Draize Scores for Discharge, Day 2 [4, 7]: 0 (4×) and 0.5 (2×)
- Daily Draize Scores for Hyperemia, Day 2 [4, 7]: 0 (4×) and 0.5 (2×)
- Daily Draize Scores for Chemosis, Day 3 [4, 8]: 0
- Daily Draize Scores for Discharge, Day 3 [4, 8]: 0
- Daily Draize Scores for Hyperemia, Day 3 [4, 8]: 0 (3×) and 0.5 (3×)
- Daily Draize Scores for Chemosis, Day 4 [4, 9]: 0
- Daily Draize Scores for Discharge, Day 4 [4, 9]: 0 (4×) and 1 and 0.5
- Daily Draize Scores for Hyperemia, Day 4 [4, 9]: 0
- Daily Draize Scores for Chemosis, Day 5 [4, 10]: 0
- Daily Draize Scores for Discharge, Day 5 [4, 10]: 0.5 and 0 (5×)
- Daily Draize Scores for Hyperemia, Day 5 [4, 10]: 0
- Daily Draize Scores for Chemosis, Day 6 [4, 11]: 0
- Daily Draize Scores for Discharge, Day 6 [4, 11]: 0 (3×) and 1 (3×)
- Daily Draize Scores for Hyperemia, Day 6 [4, 11]: 0
- Daily Draize Scores for Chemosis, Day 7 [4, 12]: 0
- Daily Draize Scores for Discharge, Day 7 [4, 12]: 0.5 (4×) and 1 and 0
- Daily Draize Scores for Hyperemia, Day 7 [4, 12]: 1 (3×) and 0.5 (3×)
- Daily Draize Scores for Chemosis, Day B [4, 13]: 0
- Daily Draize Scores for Discharge, Day B [4, 13]: 0
- Daily Draize Scores for Hyperemia, Day B [4, 13]: 0
- ocular hyperemia, observation over the study ([4]; 1%, four times a day for 6 days, once on Day 7): mild hyperemia was observed at low frequencies
- time after administration at which no NAC is detectable [5]: 10 to 12 h
